Where two headings read alike, the source gives them in different places.
Tests used:
[1] = tested on: Molt-4 human acute lymphoblastic leukemia cells; assay: Molt-4 cell viability assay; format: cell-based; conditions: 10% human serum, 48 hours, CellTiter-Glo, read-out: Molt-4 Viability EC50 (nM, 10% HS)
Procedure: In one exemplary set of conditions, Molt-4 (ATCC, Manassas, Va.) human acute lymphoblastic leukemia cells were plated 12,500 cells per well in 384-well tissue culture plates (Corning, Corning, N.Y.) in a total volume of 25 μL tissue culture medium supplemented with 10% human serum (Sigma-Aldrich, St. Louis, Mo.) and treated with a 3-fold serial dilution of the compounds of interest from 10 μM to 0.0005 μM. Each concentration was tested in duplicate at least 3 separate times. The number of viable cells following 48 hours of compound treatment was determined using the CellTiter-Glo® Luminescent Cell Viability Assay according to the manufacturer's recommendations (Promega Corp., Madison, Wis.). Compounds were tested in the presence of 10% HS.

Bcl-xL = Bcl-xL (Homo sapiens, UniProt Q07817); assay: TR-FRET Bcl-xL binding assay (competition with probe F-Bak)
Procedure: For the assay, test compounds were serially diluted in DMSO starting at 50 μM (2× starting concentration; 10% DMSO) and 10 μL transferred into a 384-well plate. 10 μL of a protein/probe/antibody mix was then added to each well at final concentrations listed below:
The samples were then mixed on a shaker for 1 minute and incubated for an additional 2 hours at room temperature. For each assay plate, a probe/antibody and protein/antibody/probe mixture were included as a negative and a positive control, respectively. Fluorescence was measured on the Envision (Perkin Elmer) using a 340/35 nm excitation filter and 520/525 (F-Bak) and 495/510 nm (Tb-labeled anti-his antibody) emission filters. Dissociation constants (Ki) were determined using Wang's equation (Wang, 1995, FEBS Lett. 360:111-114). The TR-FRET assay can be performed in the presence of varying concentrations of human serum (HS) or fetal bovine serum (FBS). Compounds were tested both without HS and in the presence of 1% HS.

[2] = in the presence of 1% human serum (HS), read-out: Bcl-xL Binding Ki (nM, 1% HS)
[3] = without human serum, read-out: Bcl-xL Binding Ki

Chain of Bcl-xL (Q07817 whole entry): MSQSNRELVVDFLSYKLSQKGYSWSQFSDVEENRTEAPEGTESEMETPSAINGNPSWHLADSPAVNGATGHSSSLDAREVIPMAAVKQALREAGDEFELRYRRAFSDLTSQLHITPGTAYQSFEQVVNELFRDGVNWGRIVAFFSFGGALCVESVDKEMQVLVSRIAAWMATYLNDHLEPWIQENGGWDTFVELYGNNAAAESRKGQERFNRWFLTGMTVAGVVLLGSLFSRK

EC50 [1] [nM]	Ki (Bcl-xL; [2]) [nM]	Ki (Bcl-xL; [3]) [nM]	Structure (SMILES)
–	2.3	0.49	COCCOC12CC3(C)CC(C)(CC(Cn4ncc(-c5ccc(N6CCc7cc(N8CCC(N)C8)cc(C(=O)Nc8nc9ccccc9s8)c7C6)nc5C(=O)O)c4C)(C3)C1)C2 (stereo not drawn) [Compound W3.17, 6-[6-(3-aminopyrrolidin-1-yl)-8-(1,3-benzothiazol-2-ylcarbamoyl)-3,4-dihydroisoquinolin-2(1H)-yl]-3-(1-{[3-(2-methoxyethoxy)-5,7-dimethyltricyclo[3.3.1.1^3,7]dec-1-yl]methyl}-5-methyl-1H-pyrazol-4-yl)pyridine-2-carboxylic acid]
–	0.14	0.014	CNCCN(C)c1cc2c(c(C(=O)Nc3nc4ccccc4s3)c1)CN(c1ccc(-c3cnn(CC45CC6(C)CC(C)(C4)CC(OCCOC)(C6)C5)c3C)c(C(=O)O)n1)CC2 [Compound W3.21, 6-[8-(1,3-benzothiazol-2-ylcarbamoyl)-6-{methyl[2-(methylamino)ethyl]amino}-3,4-dihydroisoquinolin-2(1H)-yl]-3-(1-{[3-(2-methoxyethoxy)-5,7-dimethyltricyclo[3.3.1.1^3,7]dec-1-yl]methyl}-5-methyl-1H-pyrazol-4-yl)pyridine-2-carboxylic acid]
–	0.108	< 0.01	CNCCOC12CC3(C)CC(C)(CC(Cn4ncc(-c5ccc(N6CCc7cc(OC)cc(C(=O)Nc8nc9ccccc9s8)c7C6)nc5C(=O)O)c4C)(C3)C1)C2 [Compound W3.22, 6-[8-(1,3-benzothiazol-2-ylcarbamoyl)-6-methoxy-3,4-dihydroisoquinolin-2(1H)-yl]-3-[1-({3,5-dimethyl-7-[2-(methylamino)ethoxy]tricyclo[3.3.1.1^3,7]dec-1-yl}methyl)-5-methyl-1H-pyrazol-4-yl]pyridine-2-carboxylic acid]
–	1.1	0.021	Cc1c(-c2ccc(-c3ccc4nccc(C(=O)Nc5nc6ccccc6s5)c4c3)nc2C(=O)O)cnn1CC12CC3(C)CC(C)(C1)CC(OCCN)(C3)C2 [Compound W3.23, 3-(1-{[3-(2-aminoethoxy)-5,7-dimethyltricyclo[3.3.1.1^3,7]dec-1-yl]methyl}-5-methyl-1H-pyrazol-4-yl)-6-[4-(1,3-benzothiazol-2-ylcarbamoyl)quinolin-6-yl]pyridine-2-carboxylic acid]
6.9	–	–	Cc1c(-c2ccc(N3CCc4cccc(C(=O)Nc5nc6ccccc6s5)c4C3)nc2C(=O)O)cnn1CC12CC3(C)CC(C)(C1)CC(OCCNCCS(=O)(=O)N(C)C)(C3)C2 [Compound W3.36, 6-(8-(benzo[d]thiazol-2-ylcarbamoyl)-3,4-dihydroisoquinolin-2(1H)-yl)-3-(1-((3-(2-((2-(N,N-dimethylsulfamoyl)ethyl)amino)ethoxy)-5,7-dimethyladamantan-1-yl)methyl)-5-methyl-1H-pyrazol-4-yl)picolinic acid]
10.7	–	–	Cc1c(-c2ccc(N3CCc4cccc(C(=O)Nc5nc6ccccc6s5)c4C3)nc2C(=O)O)cnn1CC12CC3(C)CC(C)(C1)CC(OCCNCCC(=O)N(C)C)(C3)C2 [Compound W3.38, 6-[8-(1,3-benzothiazol-2-ylcarbamoyl)-3,4-dihydroisoquinolin-2(1H)-yl]-3-(1-{[3-(2-{[3-(dimethylamino)-3-oxopropyl]amino}ethoxy)-5,7-dimethyltricyclo[3.3.1.1^3,7]dec-1-yl]methyl}-5-methyl-1H-pyrazol-4-yl)pyridine-2-carboxylic acid]
–	1.1	0.024	Cc1c(-c2ccc(N3CCc4cccc(C(=O)Nc5nc6ccccc6s5)c4C3)nc2C(=O)O)cnn1CC12CC3(C)CC(C)(C1)CC(NC(=O)CN)(C3)C2 [Compound W3.40, 3-(1-{[3-(2-aminoacetamido)-5,7-dimethyltricyclo[3.3.1.1^3,7]decan-1-yl]methyl}-5-methyl-1H-pyrazol-4-yl)-6-{8-[(1,3-benzothiazol-2-yl)carbamoyl]-3,4-dihydroisoquinolin-2(1H)-yl}pyridine-2-carboxylic acid]
–	4.36	0.15	Cc1c(-c2ccc(N3CCc4cccc(C(=O)Nc5nc6ccccc6s5)c4C3)nc2C(=O)O)cnn1CC12CC3(C)CC(C)(CC(CCCN)(C3)C1)C2 [Compound W3.42, 3-(1-{[3-(3-aminopropyl)-5,7-dimethyltricyclo[3.3.1.1^3,7]dec-1-yl]methyl}-5-methyl-1H-pyrazol-4-yl)-6-[8-(1,3-benzothiazol-2-ylcarbamoyl)-3,4-dihydroisoquinolin-2(1H)-yl]pyridine-2-carboxylic acid]
–	0.07	< 0.01	Cc1c(-c2ccc(-c3cnc4cccc(C(=O)Nc5nc6ccccc6s5)c4c3)nc2C(=O)O)cnn1CC12CC3(C)CC(C)(C1)CC(OCCN)(C3)C2 [Compound W3.43, 3-(1-{[3-(2-aminoethoxy)-5,7-dimethyltricyclo[3.3.1.1^3,7]decan-1-yl]methyl}-5-methyl-1H-pyrazol-4-yl)-6-{5-[(1,3-benzothiazol-2-yl)carbamoyl]quinolin-3-yl}pyridine-2-carboxylic acid]

More lines, now with the values behind:

Structure (SMILES)	EC50 [1] [nM]	Ki (Bcl-xL; [2]) [nM]	Ki (Bcl-xL; [3]) [nM]
CNCCOC12CC3(C)CC(C)(CC(Cn4ncc(-c5ccc(-c6ccc7c(c6)N(C(=O)Nc6nc8ccccc8s6)CCC7)nc5C(=O)O)c4C)(C3)C1)C2 [Compound W3.01, 6-[1-(1,3-benzothiazol-2-ylcarbamoyl)-1,2,3,4-tetrahydroquinolin-7-yl]-3-[1-({3,5-dimethyl-7-[2-(methylamino)ethoxy]tricyclo[3.3.1.1^3,7]dec-1-yl}methyl)-5-methyl-1H-pyrazol-4-yl]pyridine-2-carboxylic acid]	0.3	0.009	< 0.001
CNCCOC12CC3(C)CC(C)(CC(Cn4ncc(-c5ccc(-c6ccc7c(c6)N(C(=O)Nc6nc8ccccc8s6)CCO7)nc5C(=O)O)c4C)(C3)C1)C2 [Compound W3.02]	0.5	0.047	< 0.001
CNCCOC12CC3(C)CC(C)(CC(Cn4ncc(-c5ccc(-c6ccc7c(c6)N(C(=O)Nc6nc8ccccc8s6)CCN7C)nc5C(=O)O)c4C)(C3)C1)C2 [Compound W3.03, 6-[4-(1,3-benzothiazol-2-ylcarbamoyl)-1-methyl-1,2,3,4-tetrahydroquinoxalin-6-yl]-3-[1-({3,5-dimethyl-7-[2-(methylamino)ethoxy]tricyclo[3.3.1.1^3,7]dec-1-yl}methyl)-5-methyl-1H-pyrazol-4-yl]pyridine-2-carboxylic acid]	1.4	0.019	< 0.001
Cc1c(-c2ccc(N3CCn4cnc(C(=O)Nc5nc6ccccc6s5)c4C3)nc2C(=O)O)cnn1CC12CC3(C)CC(C)(C1)CC(OCCN)(C3)C2 [Compound W3.04, 3-(1-{[3-(2-aminoethoxy)-5,7-dimethyltricyclo[3.3.1.1^3,7]dec-1-yl]methyl}-5-methyl-1H-pyrazol-4-yl)-6-[1-(1,3-benzothiazol-2-ylcarbamoyl)-5,6-dihydroimidazo[1,5-a]pyrazin-7(8H)-yl]pyridine-2-carboxylic acid]	58.9	0.049	< 0.001
Cc1c(-c2ccc(N3CCc4c(O)ccc(C(=O)Nc5nc6ccccc6s5)c4C3)nc2C(=O)O)cnn1CC12CC3(C)CC(C)(C1)CC(OCCN)(C3)C2 [Compound W3.05, 3-(1-{[3-(2-aminoethoxy)-5,7-dimethyltricyclo[3.3.1.1^3,7]dec-1-yl]methyl}-5-methyl-1H-pyrazol-4-yl)-6-[8-(1,3-benzothiazol-2-ylcarbamoyl)-5-hydroxy-3,4-dihydroisoquinolin-2(1H)-yl]pyridine-2-carboxylic acid]	79	0.23	0.02
CNCCOC12CC3(C)CC(C)(CC(Cn4ncc(-c5ccc(-c6ccc7cccc(C(=O)Nc8nc9ccccc9s8)c7c6)nc5C(=O)O)c4C)(C3)C1)C2 [Compound W3.06, 6-[8-(1,3-benzothiazol-2-ylcarbamoyl)naphthalen-2-yl]-3-[1-({3,5-dimethyl-7-[2-(methylamino)ethoxy]tricyclo[3.3.1.1^3,7]dec-1-yl}methyl)-5-methyl-1H-pyrazol-4-yl]pyridine-2-carboxylic acid]	3.8	0.22	< 0.001
CNCCOC12CC3(C)CC(C)(CC(Cn4ncc(-c5ccc(-c6cnc7cccc(C(=O)Nc8nc9ccccc9s8)c7c6)nc5C(=O)O)c4C)(C3)C1)C2 [Compound W3.10, 6-[5-(1,3-benzothiazol-2-ylcarbamoyl)quinolin-3-yl]-3-[1-({3,5-dimethyl-7-[2-(methylamino)ethoxy]tricyclo[3.3.1.1^3,7]dec-1-yl}methyl)-5-methyl-1H-pyrazol-4-yl]pyridine-2-carboxylic acid]	–	0.0259	< 0.001

— patent US20160158377A1, “BCL-XL Inhibitory Compounds and Antibody Drug Conjugates Including the Same” (AbbVie Inc., priority 2014, published 2016)
